The text below walks through data of patent US8048924B2, “Methods and compositions employing 4-aminophenylacetic acid compounds” (Biocon Limited, priority 2001, dated 2011).

Where two headings read alike, the source gives them in different places.

The nature of series [1]: Metabolism of APAZA and sulfasalazine following oral delivery to rats (urine and feces, HPLC). Particulars: rat. On the procedure:
The degradation of the APAZA™ therapeutic agent (5-(4-carboxymethyl-phenylazo)-2-hydroxy-benzoic acid), and sulfasalazine (used as a control) and the generation of their metabolites when these compounds were orally dosed to rats were measured to be able to confirm that both the APAZA™ therapeutic agent and sulfasalazine undergo bacterial azo reduction and yield their metabolites, 5-aniinosalicylic acid (5-ASA) and sulfapyridine for sulfasalazine, 5-aminosalicylic acid (5-ASA) and 4-aminophenyl acetic acid (4-APAA) for the APAZA™ therapeutic agent.
This experiment was performed to confirm that an azo compound, the APAZA™ therapeutic agent, undergoes a bacterial reduction process and yields its metabolites in in-vivo metabolism. The quantification of its metabolites was also carried out. Sulfasalazine, not part of the present invention, was used as a control since similar azo bond cleavage by bacteria occurs with it, which results in 5-aminosalicylic acid and sulfapyridine as its metabolites. Both the APAZA™ therapeutic agent and sulfasalzine were degraded and their metabolites were produced as expected.
A total of 8 rats were used for the experiment and methylcellulose was used as a vehicle. The dosage amount was 100 mg/kg per rat. […] Both urine and feces were collected over 4 days and analyzed by HPLC. […]

A short description of series [2]: Single oral dose pharmacokinetics of APAZA in dogs. Particulars: for AUC(0-t) / Cmax / Tmax: Beagle, dog, plasma, single oral dose 1000 mg/kg; for AUC(0-t): read-out: area under the plasma concentration-time curve (AUC0-t); for Cmax: read-out: mean maximum plasma concentration (Cmax); for Tmax: read-out: time to maximum plasma concentration (tmax). The class given is in vivo, Beagle dogs.

For a further series, the system named is DSS induced colitis. The series is described as follows: Dextran sulfate sodium (DSS) colitis in the rat. Particulars: oral gavage bid. In kind it is in vivo, Sprague-Dawley rats. On the procedure:
The effectiveness of APAZA™ and sulfasalazine in ameliorating intestinal inflammation in a model of dextran sulfate sodium (DSS) induced colitis in Sprague-Dawley rats was determined. Thirty-six male Sprague-Dawley rats that were 7-8 weeks old and weighed 240-260 g were studied. […] After completion of the treatment period, rats were euthanized and the efficacy of the test drugs in inhibiting colitis was assessed by the following: • Disease Activity Index Scoring: • Body weight • Colon wet weight: body weight ratios • Colonic Myeloperoxidase (MPO) activity • Histopathological changes of the colon

For a further series, the system named is DNBS colitis. The series is described as follows: Study AA-PH-003: oral and rectal APAZA and sulfasalazine in DNBS colitis. The class given is in vivo, male Lewis rats. Further details: Average Diarrhea Score Day 3: scale not given here. Particulars: for Colonic Inflammation Scores: scale 0-2. On the procedure:
Study AA-PH-003 was designed to evaluate the anti-inflammatory efficacy of oral and rectal doses of APAZATM and sulfasalazine in the DNBS colitis model in rats. […] Thirty-five adult male Lewis rats (body weight 200-250 g) were studied. […] Animal body weights and incidence of diarrhea were recorded daily. […] Animals in the DNBS groups and the parallel deionized water group were sacrificed on day 5. Laparotomies and colectomies were performed and animals were scored for the presence and severity of intestinal adhesions, strictures, inflammation, and ulceration. Colon: body weight ratios were determined and colon histopathology was performed.

The mark [3] stands for this setting: orally + 30 mg DNBS, APAZA 200 mg/kg, sulfasalazine 265.6 mg/kg.
Setting [4] is: rectally + 30 mg DNBS, APAZA 200 mg/kg, sulfasalazine 265.6 mg/kg.

As for `Nc1ccc(O)c(C(=O)O)c1` [5-ASA, 5-amino-2-hydroxy-benzoic acid, reference compound], the “conversion of 5-ASA in vivo” value in series [1] was “quickly converted to acetylated 5-ASA”.
Turning to `O=C(O)Cc1ccc(/N=N/c2ccc(O)c(C(=O)O)c2)cc1` [APAZA™, 5-(4-carboxymethyl-phenylazo)-2-hydroxy-benzoic acid], in series [2] (female dogs), the AUC(0-t) was 40800 ng·h/mL, the Cmax came to 2640 ng/mL and the Tmax was found to be 24 h. Besides, in series [2] (male dogs), the AUC(0-t) came to 95400 ng·h/mL, the Cmax was found to be 9780 ng/mL and the Tmax was found to be 15 h. In series [2] (single oral dose, 100 to 1000 mg/kg), the “plasma levels versus dose” value is on record as “increased in a dose-related manner”. The “colon wet weight: body weight ratio, DSS versus DW” value in the series on DSS induced colitis (APAZA 100 mg/kg, sulfasalazine 133 mg/kg) is “no statistically significant difference”. The “Disease Activity Index (DAI) score” value with DSS induced colitis (rats drinking 5% DSS, APAZA 100 mg/kg, sulfasalazine 133 mg/kg) was 0-1. In the series with DSS induced colitis (rats receiving DSS), the “colonic MPO activity” value is given as “similar” and the “histological changes of the colon” value was “largely protected”. Also, the “severity of mucosal ulcers” value in the series with DNBS colitis (compared to tissues from placebo and sulfasalazine treated animals) is listed as “less severe”. The “reduction relative to control in net colon: body weight (% BW) ratio” value in the series on DNBS colitis (oral groups) was 23.8%. For the same compound, in the series with DNBS colitis (setting [3]), the “Average Diarrhea Score Day 3” value was found to be 2, the “Colon Histopathology (# severe lesions)” value is 2, the “Length of Colonic Inflammation (cm)” value is 2.5 cm and the “Mean Body Weight” value was 213.8 g. Moreover, in the series with DNBS colitis (setting [3]), the “Mean Colon Length (cm)” value is listed as 12.3 cm, the “Net Colon: Body Weight Ratio” value is 0.2309 and the “Colonic Inflammation Scores” value was 1.4. In the series with DNBS colitis (setting [4]), the “Average Diarrhea Score Day 3” value is given as 2, the “Length of Colonic Inflammation (cm)” value was determined as 1.6 cm, the “Mean Body Weight” value was 218.6 g and the “Mean Colon Length (cm)” value amounted to 12.4 cm. In the series on DNBS colitis (setting [4]), the “Net Colon: Body Weight Ratio” value came out at 0.1983 and the “Colonic Inflammation Scores” value stood at 1.3.
